Results: patent US9945845B2, “Methods of screening using amphibians” (priority 2009, dated 2018)
Entries after “also recorded” stand apart in the source; their conditions may differ. Read-outs that look alike come from different tables or passages of the source.

Tests used:
Xenopus embryos = conditions: for Lethality (NF) / Onset (NF): 20 μM, 1% DMSO; for Embr. phen.: embryonic phenotype in the primary screen; for Lethality: — = no stage of lethality given; for Type of edema Ventral: ‡ = edemas also detected in the gut
Experimental: 10-μl aliquots of the chemicals were transferred from the mother plates with a liquid handling robot (Aquarius, Tecan) into 96-well tissue culture plates to generate diluted stock plates (2 mM in DMSO; 50 μl final volume). […] Once embryos reached stage 31 (37 hpf), 10-μl aliquots of the diluted chemicals were added to the wells. […] Negative control wells contained embryos in screening medium and 0.1×MMR only. Embryos were treated with the chemicals in a humidified incubator at 23° C. over a timeframe of 4 days. Embryos were manually scored for the presence of edema or other morphological phenotypes using a teaching dissecting microscope (SV6; Carl Zeiss). Two investigators performed separately the scoring daily at stages 39 (56 hpf), 41 (76 hpf), 45 (98 hpf), and 47 (120 hpf). Dead embryos were removed and 100 μl of water was added daily to each well to compensate for fluid evaporation. […] For imaging at the end of the experiments. Xenopus tadpoles were anesthetized with 0.05% tricaine (Sigma #A5040) in 0.1×MMR. Images were captured using a stereomicroscope (SteREO Lumar V12; Carl Zeiss) equipped with a digital camera (AxioCam Color; Carl Zeiss).
Xenopus late tailbud embryos at stage 31 (37 hpf) were selected for compound treatment. […] Embryos were arrayed into 48-well dishes (five per well) and treated with test compounds at a concentration of 20 μM in the presence of 1% DMSO. […] All 48-well dishes also contained replicates of negative controls (1% DMSO). Embryos were monitored daily over a period of four days for edema formation. In addition, drug-induced lethality and other externally visible phenotypes were scored. On average, 320 compounds were screened per week.

[1] = tested on: blood vessel development and/or lymphangiogenesis in Xenopus embryos; assay type: in vivo, Xenopus laevis; conditions: for ISV phenotype: intersomitic vessels; for ISV phenotype / PCV phenotype / VVN phenotype / Blood vessel phenotype / ALH phenotype / ALS phenotype / PLV phenotype / Lymphatic phenotype: Xenopus embryos; for PCV phenotype: posterior cardinal vein; for VVN phenotype: vitelline vein network; for lymph vessel development phenotype (vegfr3 expression, in words): 20 μM from stage 31, fixed at stage 42; for ALH phenotype: anterior lymph heart; for ALS phenotype: anterior lymph sac; for PLV phenotype: posterior lymph vessels; for blood vessel development phenotype (apj expression, in words): 20 μM from stage 31, fixed at stage 35/36
Experimental: All chemicals were purchased from Sigma and 10-mM stock solutions in DMSO were prepared. Chemicals were used at a final concentration of 20 μM in screening medium to treat homozygous albino Xenopus embryos, which lack natural pigmentation. Chemical treatments of embryos (n=7 per well) was initiated at stage 31 (37 hpf) and terminated at stages 35/36 (50 hpf) or 42 (80 hpf). Embryos were fixed in 4% paraformaldehyde and processed for whole mount in situ hybridization.
Where albino embryos were used, the bleaching step was omitted. Semi-automated whole mount in situ hybridizations were performed using the Biolane HTI machine (Hölle & Hüttner AG, Germany). […] Images were captured using a stereomicroscope (SteREO Lumar V12; Carl Zeiss) equipped with a digital camera (AxioCam Color; Carl Zeiss). Composite figures were organized and labeled using Adobe Photoshop CS2 and Adobe Illustrator CS software.
Edema formation or late-stage lethality may result from excretory system defects, (cardio)vascular and/or lymphatic vascular pathologies. […] Embryos were fixed for in situ hybridization either at stage 35/36 to analyze vasculogenesis and intersomitic vein angiogenesis defects or at stage 42 to evaluate possible defects in lymph vessel development (FIGS. 3-5).

[2] = compounds causing lethality, treatment from stage 31, Nieuwkoop & Faber stage
[3] = compounds causing edema, treatment from stage 31, scored to stage 47
[4] = onset of edema, treatment from stage 31, Nieuwkoop & Faber stage
[5] = compounds causing cytotoxicity, treatment from stage 31, Nieuwkoop & Faber stage

## O=C1C(SCCO)=C(SCCO)C(=O)c2ccccc21 [NSC 95397, 2,3-bis[(2-Hydroxyethyl)thio]-1,4-naphthoquinone]
Xenopus embryos; [2]
  Lethality (NF): 40 NF
[1]
  ISV phenotype: impaired
  PCV phenotype: hypoplastic
  VVN phenotype: hypoplastic

## Cc1ccc(Cl)c(Nc2ccccc2C(=O)[O-])c1Cl.[Na+] [Meclotenamic acid sodium]
Xenopus embryos
  Embr. phen.: EDE
[1]
  ISV phenotype: impaired
  PCV phenotype: hypoplastic
  VVN phenotype: hypoplastic

## Cc1cc(N)c2ccccc2[n+]1CCCCCCCCCC[n+]1c(C)cc(N)c2ccccc21.[Cl-].[Cl-] [Dequalinium dichloride, 1,1′-Decamethylenebis(4-aminoquinaldinium) dichloride]
Xenopus embryos; [3]
  Lethality (NF): 39 NF
Xenopus embryos; embryonic stage
  Type of edema Pericordial: 39 embryonic stages according to Nieuwkoop and Faber (NF)
  Lethality: 39 embryonic stages according to Nieuwkoop and Faber (NF)
[1]
  lymph vessel development phenotype (vegfr3 expression, in words): poorly developed, stunted lymphatics emerging from the ALS and ALH and hypoplastic PLV
  Blood vessel phenotype: normal
  ALH phenotype: stunted
  ALS phenotype: stunted
  PLV phenotype: hypoplastic

## CN(C)S(=O)(=O)c1ccc2c(c1)C(=Cc1cc3c([nH]1)CCCC3)C(=O)N2 [SU 6656, 2,3-Dihydro-N,N-dimethyl-2-oxo-3-[(4,5,6,7-tetrahydro-1H-indol-2-yl)methylene]-1H-indole-5-sulfonamide]
Xenopus embryos; [3]
  Lethality (NF): 46 NF
Xenopus embryos; embryonic stage
  Type of edema Pericordial: 41/42
  Type of edema Proctodeal: 39/40
  Type of edema Pronephric: 39/40
  Lethality: 46 embryonic stages according to Nieuwkoop and Faber (NF)
  Type of edema Ventral: 39/40
Xenopus embryos; embryonic stage, * = causing bulging eyes, # = bilateral, causing narrow-set eyes
  Type of edema Periocular: 41/42*
Xenopus embryos; [4]
  Onset (NF): 39/40
[1]
  lymph vessel development phenotype (vegfr3 expression, in words): inhibiting preferentially lymphatic vascular development; also recorded: poorly developed, stunted lymphatics emerging from the ALS and ALH and hypoplastic PLV
  Blood vessel phenotype: normal
  ALH phenotype: dysplastic
  ALS phenotype: stunted
  PLV phenotype: hypopiastic

## CC(C)[C@H](CO)Nc1nc(Nc2cccc(Cl)c2)c2ncn(C(C)C)c2n1 [Purvalanol A]
Xenopus embryos; [2]
  Lethality (NF): 41/42
Xenopus embryos
  Embr. phen.: LET
[1]
  blood vessel development phenotype (apj expression, in words): only interfered with the assembly of the VVN
  Lymphatic phenotype: normal
  ISV phenotype: normal
  PCV phenotype: normal
  VVN phenotype: hypoplastic

## CC[C@H](C)C(=O)O[C@H]1CCC=C2C=C[C@H](C)[C@H](CC[C@@H]3C[C@@H](O)CC(=O)O3)[C@H]21 [Mevastatin]
Xenopus embryos; [3]
  Lethality (NF): 45 NF
Xenopus embryos
  Embr. phen.: EDE
Xenopus embryos; embryonic stage
  Type of edema Pericordial: 35/36
  Lethality: 45 embryonic stages according to Nieuwkoop and Faber (NF)
  Type of edema Ventral: 41/42
Xenopus embryos; [4]
  Onset (NF): 35/36
[1]
  lymph vessel development phenotype (vegfr3 expression, in words): lymphangiogenesis was largely suppressed
  Blood vessel phenotype: normal
  ALH phenotype: impaired
  ALS phenotype: impaired
  PLV phenotype: hypoplastic

## OCc1ccc(-c2nn(Cc3ccccc3)c3ccccc23)o1 [YC-1, 3-(5′-Hydroxymethyl-2′-fulyl)-1-benzyl indazole]
Xenopus embryos
  Embr. phen.: EDE
Xenopus embryos; [4]
  Onset (NF): 45 NF
[1]
  blood vessel development phenotype (apj expression, in words): dispersed, punctuated patterns of VVN endothelia
  Lymphatic phenotype: normal
  ISV phenotype: normal
  PCV phenotype: normal
  VVN phenotype: hypoplastic

## CS(=O)(=O)O.Cc1c(C(=O)c2cccc3ccccc23)c2cccc3c2n1[C@H](CN1CCOCC1)CO3 [(R)-(+)-WIN 55,212-2 mesylate, (R)-(+)-[2,3-Dihydro-5-methyl-3[(morpholinyl)methyl]pyrrolo[1,2,3-de]-1,4-benzoxazinyl]-(1-naphthalenyl)methanone mesylate]
Xenopus embryos; [5]
  Lethality (NF): 32 NF

## CCCCCCCCCCCCCCCCCC(=O)NCC(COP(=O)([O-])OCC[N+](C)(C)C)OCC (racemic) [rac-2-Ethoxy-3-octadecanamido-1-propylphospocholine]
Xenopus embryos; [5]
  Lethality (NF): 32 NF

## Dequalinium analog, C-14 linker
Xenopus embryos; [5]
  Lethality (NF): 32 NF

## Clc1ccc(C(c2ccc(Cl)cc2)n2cc[n+](CC(OCc3ccc(Cl)cc3Cl)c3ccc(Cl)cc3Cl)c2)cc1 (stereo not shown) [Calmidazolium chloride]
Xenopus embryos; [2]
  Lethality (NF): 37/38
[1]
  blood vessel development phenotype (apj expression, in words): promoting ectopic, premature angiogenesis; also recorded: ectopic sprouting phenotype was even more pronounced
  ISV phenotype: ectopic
  PCV phenotype: normal
  VVN phenotype: hyperplastic

## N#CCCN.N#CCCN.O=C(O)/C=C/C(=O)O [3-Aminopropionitrile fumarate]
Xenopus embryos; onset of other phenotypic defects
  Onset (NF): 46 NF

## COc1cc(-c2ccc(=O)[nH]n2)ccc1OC(F)F [Zardaverine, 6-(4-Difluoromethoxy-3-methoxyphenyl)-3(2H)-pyridazinone]
Xenopus embryos; [3]
  Lethality (NF): 43 NF
Xenopus embryos; embryonic stage
  Type of edema Pericordial: 39/40
  Type of edema Pronephric: 41/42
  Lethality: 43 embryonic stages according to Nieuwkoop and Faber (NF)
Xenopus embryos; [4]
  Onset (NF): 39/40
[1]
  blood vessel development phenotype (apj expression, in words): only interfered with the assembly of the VVN
  ISV phenotype: normal
  PCV phenotype: normal
  VVN phenotype: hypoplastic

## CCN1/C(=C/C(C)=O)Sc2ccc(OC)cc21 [TG003, (Z)-1-(3-Ethyl-5-methoxy-2,3-dihydrobenzothiazol-2-ylidene)-propan-2-one]
Xenopus embryos; [2]
  Lethality (NF): 40 NF

## CC(C)=CCCC(C)=CCCC(C)=CCSc1ccccc1C(=O)O [Farnesylthiosalicylic acid]
Xenopus embryos; [5]
  Lethality (NF): 32 NF

## C[n+]1cc2c3c(ccc2c2ccc4cc5c(cc4c21)OCO5)OCO3.[Cl-] [Sanguinarine chloride, 13-Methyl-[1,3]benzodioxolo[5,6-c]-1,3-dioxolo[4,5-i]phenanthridinium chloride]
Xenopus embryos; [5]
  Lethality (NF): 32 NF

## CN[C@@H](C)[C@H](O)c1ccccc1.CN[C@@H](C)[C@H](O)c1ccccc1.O=S(=O)(O)O [(-)-Ephedrine hemisulfate]
Xenopus embryos; onset of pigmentation defects
  Onset (NF): 33/34

## O=c1[nH]c2ccccc2n1C1CCN(CCCC(c2ccc(F)cc2)c2ccc(F)cc2)CC1 [Pimozide]
Xenopus embryos; [3]
  Lethality (NF): 45 NF
Xenopus embryos; embryonic stage
  Type of edema Pericordial: 41/42
  Type of edema Pronephric: 41/42
  Lethality: 45 embryonic stages according to Nieuwkoop and Faber (NF)
  Type of edema Ventral: 41/42
Xenopus embryos; [4]
  Onset (NF): 41/42
